Results taken from ChEMBL document CHEMBL1138059, “Discovery of a nanomolar inhibitor of the human murine double minute 2 (MDM2)-p53 interaction through an integrated, virtual database screening strategy” (J Med Chem, 2006).
pKi: −log10 of the molar value. Activity calls are given as the source filed them. The rule behind the calls is not given here.

Tests used:
HCT-116 [1] = experiment: Induction of p53 accumulation in isogenic HCT116 p53-/- cells; assay type: functional, cell-based; details: Homo sapiens
HCT-116 [2] = experiment: Induction of p53 accumulation in HCT116 cells expressing wild type p53; assay type: functional, cell-based; details: Homo sapiens
HCT-116 [3] = experiment: Induction of p21 accumulation in HCT116 cells expressing wild type p53; assay type: functional, cell-based; details: Homo sapiens
HCT-116 [4] = experiment: Induction of MDM2 accumulation in HCT116 cells expressing wild type p53; assay type: functional, cell-based; details: Homo sapiens
HCT-116 [5] = experiment: Induction of MDM2 accumulation in isogenic HCT116 p53-/- cells; assay type: functional, cell-based; details: Homo sapiens
HCT-116 [6] = experiment: Induction of p21 accumulation in isogenic HCT116 p53-/- cells; assay type: functional, cell-based; details: Homo sapiens
[7] = biological target: E3 ubiquitin-protein ligase Mdm2 (Homo sapiens, UniProt Q00987)
E3 ubiquitin-protein ligase Mdm2, sequence (Q00987 whole entry): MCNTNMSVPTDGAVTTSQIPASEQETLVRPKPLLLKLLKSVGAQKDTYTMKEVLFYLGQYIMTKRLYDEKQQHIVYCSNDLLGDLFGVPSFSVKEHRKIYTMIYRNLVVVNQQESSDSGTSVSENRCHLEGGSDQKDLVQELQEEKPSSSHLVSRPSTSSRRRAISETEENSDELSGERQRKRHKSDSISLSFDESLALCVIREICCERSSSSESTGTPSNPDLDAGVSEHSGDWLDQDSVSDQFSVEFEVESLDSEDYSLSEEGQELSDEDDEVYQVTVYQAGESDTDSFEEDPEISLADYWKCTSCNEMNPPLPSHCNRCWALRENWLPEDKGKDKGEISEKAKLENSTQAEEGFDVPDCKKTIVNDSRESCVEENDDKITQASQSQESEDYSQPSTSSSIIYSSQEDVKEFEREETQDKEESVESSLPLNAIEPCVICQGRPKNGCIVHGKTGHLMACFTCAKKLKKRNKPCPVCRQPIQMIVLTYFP

Question: How did the Activity (HCT-116 [1]) turn out when Cc1ccc2ccc(C(Nc3ccccc3)c3ccccc3)c(O)c2n1 (configuration not stated) was run?
Answer: inactive

Question: And the Activity (HCT-116 [2])?
Answer: Dose-dependent effect

Question: And the Activity (HCT-116 [3])?
Answer: Dose-dependent effect

Question: What about the Activity (HCT-116 [4]) of the same compound?
Answer: Dose-dependent effect

Question: And the Activity (HCT-116 [5])?
Answer: inactive

Question: What about the Activity (HCT-116 [6]) of the same compound?
Answer: inactive

Question: What about the pKi [7] of the same compound?
Answer: 6.92
